Reference: the supplement of paper PMC10307832

Assays:
Experiment in all cases: relative viability (nuclei count vs DMSO), 5 days (fraction); higher = more cells survive
PAC-1 + Bortezomib = compound: C=CCc1cccc(/C=N/NC(=O)CN2CCN(Cc3ccccc3)CC2)c1O [PAC-1] + CC(C)C[C@H](NC(=O)[C@H](Cc1ccccc1)NC(=O)c1cnccn1)B(O)O [Bortezomib] (partner 0.002 µM)
Summary of the method: (§1)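 Medians of duplicate plates are given as relative viability. That measure is the nuclei count in treated wells divided by the count in vehicle wells. Counts were taken on 4× images of lung cancer cell lines in 1536-well plates, 5 days after pin-tool dosing the day after seeding with one drug alone or a fixed anchor-drug dose plus five library-drug doses (not always all listed) in √10 steps.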

BMX-IN-1 + Foretinib = compound: C=CC(=O)Nc1cc(-n2c(=O)ccc3cnc4ccc(-c5ccc(NS(C)(=O)=O)cc5)cc4c32)ccc1C [BMX-IN-1] + COc1cc2c(Oc3ccc(NC(=O)C4(C(=O)Nc5ccc(F)cc5)CC4)cc3F)ccnc2cc1OCCCN1CCOCC1 [Foretinib] (partner 0.25 µM)
Summary of the method: as §1

PAC-1 + Luminespib = compound: C=CCc1cccc(/C=N/NC(=O)CN2CCN(Cc3ccccc3)CC2)c1O [PAC-1] + CCNC(=O)c1noc(-c2cc(C(C)C)c(O)cc2O)c1-c1ccc(CN2CCOCC2)cc1 [Luminespib] (partner 0.01 µM)
Summary of the method: as §1

Ibrutinib + Trametinib = compound: C=CC(=O)N1CCC[C@@H](n2nc(-c3ccc(Oc4ccccc4)cc3)c3c(N)ncnc32)C1 [Ibrutinib] + CC(=O)Nc1cccc(-n2c(=O)n(C3CC3)c(=O)c3c(Nc4ccc(I)cc4F)n(C)c(=O)c(C)c32)c1 [Trametinib] (partner 0.02 µM)
Summary of the method: as §1

| Cell Line | relative viability (PAC-1 + Bortezomib; first compound 0.02 µM) | relative viability (PAC-1 + Bortezomib; first compound 0.06325 µM) | relative viability (PAC-1 + Bortezomib; first compound 0.2 µM) | relative viability (PAC-1 + Bortezomib; first compound 2 µM) | relative viability (BMX-IN-1 + Foretinib; first compound 0.02 µM) | relative viability (BMX-IN-1 + Foretinib; first compound 0.2 µM) | relative viability (BMX-IN-1 + Foretinib; first compound 0.6325 µM) | relative viability (BMX-IN-1 + Foretinib; first compound 2 µM) | relative viability (PAC-1 + Luminespib; first compound 0.02 µM) | relative viability (PAC-1 + Luminespib; first compound 0.06325 µM) | relative viability (PAC-1 + Luminespib; first compound 0.2 µM) | relative viability (PAC-1 + Luminespib; first compound 2 µM) | relative viability (Ibrutinib + Trametinib; first compound 0.005 µM) | relative viability (Ibrutinib + Trametinib; first compound 0.01581 µM) | relative viability (Ibrutinib + Trametinib; first compound 0.1581 µM) | relative viability (Ibrutinib + Trametinib; first compound 0.5 µM) | relative viability (Ibrutinib + Trametinib; first compound 0.05 µM) |
| --- | --- | --- | --- | --- | --- | --- | --- | --- | --- | --- | --- | --- | --- | --- | --- | --- | --- |
| IA-LM | 0.803 | 0.756 | 0.783 | 0.807 | 1.53 | 1.31 | 1.15 | 1.21 | – | – | – | – | – | – | – | – | – |
| LC-2-ad | 0.981 | 0.971 | 0.999 | 0.957 | 0.878 | 0.926 | 0.975 | 0.946 | 1.06 | 1.02 | 0.971 | 0.963 | 0.914 | 0.907 | 0.929 | 0.863 | – |
| LCLC-97TM1 | 0.437 | 0.901 | 0.668 | 0.794 | 1.01 | 0.917 | 1.03 | 1.1 | 0.74 | 0.916 | 0.621 | 0.868 | 0.192 | 0.172 | 0.192 | 0.155 | 0.202 |
| LCLC-103H | 1.17 | 1.1 | 1.1 | 1.18 | 0.879 | 0.78 | 0.882 | 0.735 | 1.06 | 0.932 | 0.981 | 0.911 | 0.677 | 0.645 | 0.739 | 0.605 | 0.716 |
| LK-2 | – | – | – | – | 1.59 | 1.54 | 1.04 | 1.03 | 0.176 | 0.169 | 0.225 | 0.254 | 0.931 | 0.7 | 0.702 | 0.668 | 0.816 |
| LOU-NH91 | 0.452 | 0.475 | 0.469 | 0.526 | 0.938 | – | 1.01 | 0.942 | 0.312 | 0.271 | 0.352 | 0.322 | 0.744 | 0.74 | 0.783 | 0.655 | 0.725 |
| LU99A | 1.1 | 1.11 | 1.07 | 1.05 | 0.828 | 0.776 | 0.842 | 0.817 | 0.304 | 0.229 | 0.266 | 0.217 | 0.532 | 0.575 | 0.574 | 0.553 | 0.528 |
| LXF-289 | 0.983 | 1.01 | 1.01 | 0.995 | 1.08 | 1.03 | 1.06 | 1 | 0.683 | 0.731 | 0.758 | 0.756 | 0.703 | 0.649 | 0.694 | 0.722 | 0.689 |
| NCI-H23 | 0.956 | 1.01 | 0.866 | 0.995 | 1.18 | 0.965 | 0.938 | 0.999 | 0.231 | 0.223 | 0.237 | 0.219 | 0.313 | 0.38 | 0.366 | 0.361 | 0.362 |
| NCI-H322M | 1.21 | 1.31 | 1.28 | 1.07 | 1.13 | 0.958 | 0.967 | 0.941 | 0.812 | 0.832 | 0.848 | 0.775 | 0.466 | 0.457 | 0.519 | 0.508 | 0.532 |
| NCI-H358 | – | – | – | – | 0.855 | 0.777 | 0.887 | 0.701 | 0.411 | 0.404 | 0.32 | 0.265 | 0.102 | 0.194 | 0.138 | 0.116 | – |
| NCI-H522 | – | – | – | – | – | – | – | – | 1.15 | 1.06 | 0.975 | 1.17 | 0.757 | 0.714 | 0.71 | 0.57 | 0.661 |
| NCI-H1299 | 1.02 | 0.99 | 0.975 | 0.993 | 1.12 | 1.06 | 1.16 | 1.06 | – | – | – | – | – | – | – | – | – |
| NCI-H1395 | – | – | – | – | 1.1 | 0.968 | 0.949 | 0.908 | 0.656 | 0.585 | 0.651 | 0.653 | 0.912 | 1.13 | 1.04 | 1.01 | 1.16 |
| NCI-H1563 | 0.854 | 0.833 | 0.844 | 0.916 | 0.922 | 0.956 | 0.914 | 0.906 | 0.49 | 0.542 | 0.505 | 0.511 | – | – | – | – | – |
| NCI-H1623 | – | – | – | – | 0.853 | 1.02 | 0.798 | 0.788 | 0.465 | 0.473 | 0.515 | 0.499 | – | – | – | – | – |
| NCI-H1648 | – | – | – | – | – | – | – | – | – | – | – | – | 0.565 | 0.433 | 0.418 | 0.257 | 0.316 |
| NCI-H1703 | 0.29 | 0.268 | 0.4 | 0.353 | 0.358 | 0.351 | 0.298 | 0.322 | – | – | – | – | – | – | – | – | – |
| NCI-H1792 | 0.982 | 1.01 | 0.947 | 0.896 | – | – | – | – | 0.355 | 0.484 | 0.47 | 0.416 | – | 0.404 | 0.44 | 0.36 | 0.48 |
| NCI-H1793 | – | – | – | – | 0.856 | 0.856 | 0.656 | 0.699 | 0.207 | 0.216 | 0.164 | 0.17 | 0.485 | 0.423 | 0.419 | 0.401 | 0.436 |
| NCI-H1944 | – | – | – | – | 0.972 | 0.83 | 0.976 | 0.905 | 0.766 | 0.685 | 0.765 | 0.701 | 0.423 | 0.369 | 0.363 | 0.374 | 0.395 |
| NCI-H2170 | – | – | – | – | 1.23 | 0.975 | 0.993 | 0.987 | 0.64 | 0.607 | 0.542 | 0.606 | 0.806 | 0.744 | 0.955 | 0.184 | 0.637 |
| NCI-H2342 | – | – | – | – | 1.06 | 1.04 | 1.04 | 1.24 | 0.655 | 0.82 | 0.759 | 0.777 | 0.801 | 0.873 | 0.773 | 0.676 | 0.659 |
| SW 900 | – | – | – | – | 0.815 | 0.944 | 0.757 | 0.802 | 0.173 | 0.157 | 0.16 | 0.214 | 0.86 | 0.654 | 0.901 | 0.603 | 0.803 |
